Measurements: patent US20050042688A1, “Cellular analysis” (priority 2003, published 2005)

Tested on: T cells
Settings: whole blood collected in EDTA versus heparin as anticoagulant, 37° C., activated with PDBu/ionomycin
Procedure: In this example, whole blood was collected from a donor in collection tubes containing heparin (curve 1) or EDTA (curve 2), respectively, as the anticoagulants. Blood samples were then incubated at 37° C. and activated with phorbol ester and a calcium ionophore (PDBu/I, phorbol-12,13-dibutyrate/ionomycin).

## O=C(O)CN(CCN(CC(=O)O)CC(=O)O)CC(=O)O [EDTA]
  responsiveness of T-cells (level of inducible actin polymerization by PDBu/I): dramatic decrease in the responsiveness of T-cells
